ChEMBL document CHEMBL4420075, “Seriniquinones, melanoma-specific anticancer agents” (2016)

System: HCT-116
Assay: Cytotoxicity in human HCT116 cells by MTT assay
Type: functional, cell-based

O=c1c2ccccc2c(=O)c2c1sc1c(=O)c3ccc(Cl)cc3c(=O)c12
IC50: 280 nM

O=C(Nc1ccc2c(=O)c3sc4c(=O)c5ccc(NC(=O)C(F)(F)F)cc5c(=O)c4c3c(=O)c2c1)C(F)(F)F
IC50: 480 nM

O=c1c2ccccc2c(=O)c2c1sc1c(=O)c3cc(O)ccc3c(=O)c12
IC50: 1300 nM

CC(=O)Oc1ccc2c(=O)c3sc4c(=O)c5cc(O)ccc5c(=O)c4c3c(=O)c2c1
IC50: 3500 nM
